The results in this text go back to patent US20220185802A1, “BENZOXAZINE MONOMERS AND POLYMERIC COATINGS” (LUXEMBOURG INSTITUTE OF SCIENCE AND TECHNOLOGY (LIST), priority 2019, published 2022).

In one assay the test system is THP-1 cells. The assay can be described thus: Pro-inflammatory activity of coated samples (FIG. 20). Conditions: samples coated with film derived from the compound (monomers in combination with P-e; P-e alone). It counts as cell-based, human. The text has this:
(§1) In human, inflammation can arise through the activation of nuclear factor-kappaB (NF-κB), a pivotal transcription factor in chronic inflammatory diseases, inducing the expression of numerous inflammation related-genes such as those for tumor necrosis factor α (TNFα) and cytokines such as IL-1β, IL-10, and IL-6 or IL-8 (Medzhitov R., Nature, 2008, 454, 428-435). In the present invention, an inflammation-relevant human cell line, i.e. the monocytes THP-1 cells, are used to evaluate the potential of the coatings to reduce the inflammation. Their cytotoxicity towards are first evaluated using the resazurin reduction test (O'Brien J. et al., Eur. J. Biochem., 2000, 267, 5421-5426.) General anti-inflammatory properties are then determined using THP-1 cells transfected with a reporter plasmid expressing the secreted alkaline phosphatase (SEAP) gene under the control of an NF-κB-inducible promoter. TNFα are used as an inflammation inducer and the data are expressed as percentage inhibition of NF-κB activation. In addition, the effects of the most promising monomers is further evaluated on inflammation-related genes by real time qPCR using THP-1 cells differentiated into macrophages (Andre C. M. et al., J. Agric. Food. Chem, 2013, 61, 2773-2779) and IL-1β, IL-10, IL-6, and COX-2 as markers (Kaulmann A. et al., Mol. Nutr. Food Res., 2016, 60, 992-1005).

The next assay deals with NF-κB activation. The assay can be described thus: Inflammation inhibitory activity, NF-κB-inducible SEAP reporter in THP-1 cells with TNFα as inducer. It counts as cell-based, human. Conditions: samples coated with polymer formed from the monomer in combination with P-e, film about 120 μm.
Description: as §1

Regarding `c1ccc2c(c1)CN(CCN1COc3ccccc3C1)CO2` [P-e, reference compound], the pro-inflammatory properties result in the assay on THP-1 cells was “only the sample coated with the film derived from compound 13 shows a trend”.

`CC=Cc1cc2c(c(OC)c1)OCN(Cc1ccco1)C2` [Monomer 12]: the “inhibition of the inflammation” value in the assay on NF-κB activation (TNFα as inducer) is ~20%. Moreover, the anti-inflammatory effect result in the assay on NF-κB activation (in comparison with P-e or 13) is “strong anti-inflammatory effect”. Moreover, in the assay with THP-1 cells, the pro-inflammatory properties entry is listed as “only the sample coated with the film derived from compound 13 shows a trend”.
